The record followed here is patent US20100144733A1, “Compounds, compositions and methods comprising heteroaromatic derivatives” (Institute for OneWorld Health, priority 2008, published 2010).

For orientation: IC50 means the concentration that gives 50% inhibition.

In one assay the target is T1, CHO-CFTR cell line (Homo sapiens, UniProt P13569).
T1 construct: expressed in transfected cells; host or cells: CHO (CHO-CFTR cell line)
Nature of the assay: CHO-CFTR assay (FLIPR assay, same conditions as the T84 assay). The class given is cell-based. The following applies: imidazole and triazole-containing compounds.

The target of a further assay is T2, CFTR (Homo sapiens, UniProt P13569).
T2 construct: endogenous in cells; host or cells: T84 human colonic cells (ECACC)
T2 sequence (P13569 whole entry): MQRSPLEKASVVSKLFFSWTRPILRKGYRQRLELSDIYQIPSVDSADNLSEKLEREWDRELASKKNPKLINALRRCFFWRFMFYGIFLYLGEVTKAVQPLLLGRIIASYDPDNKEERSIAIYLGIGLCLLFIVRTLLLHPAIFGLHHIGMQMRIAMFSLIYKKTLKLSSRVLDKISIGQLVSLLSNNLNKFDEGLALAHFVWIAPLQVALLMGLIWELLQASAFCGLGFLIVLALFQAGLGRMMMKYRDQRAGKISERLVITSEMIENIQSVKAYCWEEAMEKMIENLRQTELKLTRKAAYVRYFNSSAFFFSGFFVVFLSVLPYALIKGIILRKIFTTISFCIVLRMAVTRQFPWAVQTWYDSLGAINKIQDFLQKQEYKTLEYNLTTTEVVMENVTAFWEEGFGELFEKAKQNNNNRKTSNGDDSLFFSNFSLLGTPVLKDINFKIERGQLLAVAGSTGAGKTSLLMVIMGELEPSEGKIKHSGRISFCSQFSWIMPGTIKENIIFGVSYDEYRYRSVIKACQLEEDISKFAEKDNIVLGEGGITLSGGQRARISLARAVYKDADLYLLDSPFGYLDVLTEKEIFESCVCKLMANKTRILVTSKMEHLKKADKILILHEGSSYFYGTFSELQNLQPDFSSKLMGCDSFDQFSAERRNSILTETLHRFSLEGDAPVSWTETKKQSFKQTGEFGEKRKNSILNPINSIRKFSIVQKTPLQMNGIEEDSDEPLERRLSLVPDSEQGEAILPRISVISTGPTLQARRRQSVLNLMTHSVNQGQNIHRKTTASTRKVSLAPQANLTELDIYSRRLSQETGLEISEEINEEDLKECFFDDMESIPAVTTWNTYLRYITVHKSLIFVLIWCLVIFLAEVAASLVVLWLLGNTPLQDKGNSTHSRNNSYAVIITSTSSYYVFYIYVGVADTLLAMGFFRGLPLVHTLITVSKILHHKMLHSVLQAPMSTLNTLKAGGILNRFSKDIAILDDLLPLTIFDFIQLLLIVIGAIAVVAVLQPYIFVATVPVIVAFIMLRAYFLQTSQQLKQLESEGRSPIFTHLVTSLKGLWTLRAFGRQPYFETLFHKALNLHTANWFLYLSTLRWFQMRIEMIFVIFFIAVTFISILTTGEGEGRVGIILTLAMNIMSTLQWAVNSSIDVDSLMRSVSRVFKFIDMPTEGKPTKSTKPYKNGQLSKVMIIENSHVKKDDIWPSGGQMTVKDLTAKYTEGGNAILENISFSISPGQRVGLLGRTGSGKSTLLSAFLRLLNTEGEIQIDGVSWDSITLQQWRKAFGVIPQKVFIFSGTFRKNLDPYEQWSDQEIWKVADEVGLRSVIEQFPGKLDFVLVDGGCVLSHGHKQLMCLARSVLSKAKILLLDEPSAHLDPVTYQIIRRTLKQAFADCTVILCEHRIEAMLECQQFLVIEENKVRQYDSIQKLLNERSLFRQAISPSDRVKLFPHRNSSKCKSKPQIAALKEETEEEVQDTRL
Nature of the assay: T84 assay (FLIPR membrane potential dye, forskolin/IBMX-stimulated CFTR channel activity). It is filed as cell-based. The following applies: imidazole and triazole-containing compounds (Tables 13, 14, 14′), read-out: IC50 (μM) (T84 assay). The essentials: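 Fluorescence from a membrane potential dye in T84 monolayers (HBSS with 10 mM Hepes) is followed each second for 150 s. Cells are exposed to test compound during the 45 min dye loading, then challenged with forskolin (10 μM) and IBMX (100 μM) to open CFTR. Inhibitors suppress the depolarization-driven fluorescence increase.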

T1 sequence (P13569 whole entry): as above

Regarding `CC(C)N(Cc1cccc(OC(F)(F)F)c1)C(=O)c1ncn(-c2cc(Cl)c(O)c(Cl)c2)n1` [99i, 1-(3,5-dichloro-4-hydroxyphenyl)-N-isopropyl-N-(3-(trifluoromethoxy)benzyl)-1H-1,2,4-triazole-3-carboxamide], the IC50 against CHO-CFTR cell line is 12 µM; at CFTR, 7.93 µM.

Consider `O=C(c1ncn(-c2cc(Cl)c(O)c(Cl)c2)n1)N(O)Cc1ccc(Oc2ccccc2)cc1` [131i, 1-(3,5-dichloro-4-hydroxyphenyl)-N-hydroxy-N-(4-phenoxybenzyl)-1H-1,2,4-triazole-3-carboxamide], for which the IC50 against CHO-CFTR cell line stood at 7.45 µM; at CFTR, 4.87 µM.

Turning to `CC(C)(C)C(=O)CN(Cc1ccc(C(C)(C)C)cc1)C(=O)c1ncn(-c2cc(Cl)c(O)c(Cl)c2)n1` [50i, N-(4-tert-butylbenzyl)-1-(3,5-dichloro-4-hydroxyphenyl)-N-(3,3-dimethyl-2-oxobutyl)-1H-1,2,4-triazole-3-carboxamide], the values for the concentration for half-maximal inhibition (IC50) at CHO-CFTR cell line and at CFTR were 18.5 µM and 1.16 µM, respectively.

Take `CC(C)(C)CCN(Cc1ccc(Cl)c(Cl)c1)C(=O)c1ncn(-c2cc(Cl)c(O)c(Cl)c2)n1` [107i, 1-(3,5-dichloro-4-hydroxyphenyl)-N-(3,4-dichlorobenzyl)-N-(3,3-dimethylbutyl)-1H-1,2,4-triazole-3-carboxamide]: the half-maximal inhibitory concentration (IC50) on CHO-CFTR cell line stood at 26.9 µM; at CFTR, 1.73 µM.

For `O=C(NCc1ccc(Oc2ccc(CO)cc2)cc1)c1ncn(-c2cc(Cl)c(O)c(Cl)c2)n1` [76i, 1-(3,5-dichloro-4-hydroxyphenyl)-N-(4-(4-(hydroxymethyl)phenoxy)benzyl)-1H-1,2,4-triazole-3-carboxamide], the IC50 against CHO-CFTR cell line came to 12.2 µM; at CFTR, 11.3 µM.

Consider `COCCOCCOCCN(Cc1ccc(Cl)c(Cl)c1)C(=O)c1ncn(-c2cc(Cl)c(O)c(Cl)c2)n1` [114i, 1-(3,5-dichloro-4-hydroxyphenyl)-N-(3,4-dichlorobenzyl)-N-(2-(2-(2-methoxyethoxy)ethoxy)ethyl)-1H-1,2,4-triazole-3-carboxamide], for which the IC50 against CHO-CFTR cell line is 22.7 µM; at CFTR, 6.63 µM.

With `Oc1c(Cl)cc(-n2cnc(C(O)(Cc3ccc(F)cc3)Cc3ccc(F)cc3)n2)cc1Cl` [56i, 4-(3-(1,3-bis(4-fluorophenyl)-2-hydroxypropan-2-yl)-1H-1,2,4-triazol-1-yl)-2,6-dichlorophenol], the half-maximal inhibitory concentration (IC50) turned out to be 25.5 µM against CHO-CFTR cell line and 20.4 µM on CFTR.

As to `O=C(NCc1ccc(Oc2cc(Cl)c(OCc3ccccc3)c(Cl)c2)cc1)c1ncn(-c2cc(Cl)c(O)c(Cl)c2)n1` [73i], the results for the IC50 against CHO-CFTR cell line and on CFTR were 17 µM and 30.7 µM, respectively.

For `O=C(c1cn(-c2cc(Br)c(O)c(Br)c2)cn1)N1CCC(Cc2ccccc2)CC1` [19i, (4-benzylpiperidin-1-yl)(1-(3,5-dibromo-4-hydroxyphenyl)-1H-imidazol-4-yl)methanone], the IC50 on CHO-CFTR cell line was determined as 7.5 µM; at CFTR, 17.4 µM.

Turning to `O=C(NCc1ccc(Oc2ccc(Cl)c(C(F)(F)F)c2)cc1)c1ncn(-c2cc(Cl)c(O)c(Cl)c2)n1` [70i, N-(4-(4-chloro-3-(trifluoromethyl)phenoxy)benzyl)-1-(3,5-dichloro-4-hydroxyphenyl)-1H-1,2,4-triazole-3-carboxamide], the figures for the IC50 against CHO-CFTR cell line and on CFTR were 19.4 µM and 4.72 µM, respectively.

In the case of `CC(C)(C)c1ccc(Oc2ccc(CNC(=O)c3ncn(-c4cc(Cl)c(O)c(Cl)c4)n3)cc2)cc1` [68i, N-(4-(4-tert-butylphenoxy)benzyl)-1-(3,5-dichloro-4-hydroxyphenyl)-1H-1,2,4-triazole-3-carboxamide], the IC50 at CHO-CFTR cell line came to 19.1 µM; at CFTR, 5.34 µM.

Turning to `Oc1c(Cl)cc(-n2cnc(C(O)(c3cc(F)cc(F)c3)c3cc(F)cc(F)c3)n2)cc1Cl` [52i, 4-(3-(Bis(3,5-difluorophenyl)(hydroxy)methyl)-1H-1,2,4-triazol-1-yl)-2,6-dichlorophenol], the figures for the IC50 on CHO-CFTR cell line and on CFTR were 7.8 µM and 13.6 µM, respectively.

`C=CCN(Cc1cccc(C(F)(F)F)c1)C(=O)c1ncn(-c2cc(Cl)c(O)c(Cl)c2)n1` [104i, N-allyl-1-(3,5-dichloro-4-hydroxyphenyl)-N-(3-(trifluoromethyl)benzyl)-1H-1,2,4-triazole-3-carboxamide]: the IC50 on CHO-CFTR cell line stood at 41.9 µM; at CFTR it was 5.83 µM.

In the case of `CC(C)(C)c1ccc(CN(Cc2cccnc2)C(=O)c2ncn(-c3cc(Cl)c(O)c(Cl)c3)n2)cc1` [93i, N-(4-tert-butylbenzyl)-1-(3,5-dichloro-4-hydroxyphenyl)-N-(pyridin-3-ylmethyl)-1H-1,2,4-triazole-3-carboxamide], the IC50 at CHO-CFTR cell line worked out at 4.67 µM; on CFTR, 1.19 µM.

On to `CCN(Cc1ccc(Cl)c(Cl)c1)C(=O)c1ncn(-c2cc(Cl)c(O)c(Cl)c2)n1` [108i, 1-(3,5-dichloro-4-hydroxyphenyl)-N-(3,4-dichlorobenzyl)-N-ethyl-1H-1,2,4-triazole-3-carboxamide], for which the values for the IC50 at CHO-CFTR cell line and on CFTR were 4.08 µM and 2.99 µM, respectively.

With `O=C(NCc1ccc(F)c(Cl)c1)c1ncn(-c2cc(Cl)c(O)c(Cl)c2)n1` [23i, N-(3-chloro-4-fluorobenzyl)-1-(3,5-dichloro-4-hydroxyphenyl)-1H-1,2,4-triazole-3-carboxamide], the IC50 against CHO-CFTR cell line turned out to be 12.5 µM; on CFTR, 7.39 µM.

As to `CC(C)c1ccc(CN(C(=O)c2ncn(-c3cc(Cl)c(O)c(Cl)c3)n2)C(C)C)cc1` [96i, 1-(3,5-dichloro-4-hydroxyphenyl)-N-isopropyl-N-(4-isopropylbenzyl)-1H-1,2,4-triazole-3-carboxamide], the half-maximal inhibitory concentration (IC50) at CHO-CFTR cell line is 22.1 µM; on CFTR, 2.53 µM.

With `CCN(Cc1ccc(C(C)(C)C)cc1)C(=O)c1ncn(-c2cc(Cl)c(O)c(Cl)c2)n1` [88i, N-(4-tert-butylbenzyl)-1-(3,5-dichloro-4-hydroxyphenyl)-N-ethyl-1H-1,2,4-triazole-3-carboxamide], the IC50 against CHO-CFTR cell line is 6.58 µM; at CFTR it was 0.75 µM.

As to `C=CCN(Cc1ccc(C(C)(C)C)cc1)C(=O)c1ncn(-c2cc(Cl)c(O)c(Cl)c2)n1` [51i, N-allyl-N-(4-tert-butylbenzyl)-1-(3,5-dichloro-4-hydroxyphenyl)-1H-1,2,4-triazole-3-carboxamide], the figures for the IC50 against CHO-CFTR cell line and on CFTR were 5.13 µM and 0.63 µM, respectively.

As for `CC(C)(C)C(=O)C(Cc1cccc(C(F)(F)F)c1)NC(=O)c1ncn(-c2cc(Cl)c(O)c(Cl)c2)n1` (centres unmarked) [132i, 1-(3,5-dichloro-4-hydroxyphenyl)-N-(4,4-dimethyl-3-oxo-1-(3-(trifluoromethyl)phenyl)pentan-2-yl)-1H-1,2,4-triazole-3-carboxamide], the figures for the IC50 at CHO-CFTR cell line and on CFTR were 26.5 µM and 3.87 µM, respectively.

For the compound `CC(C)(C)CCN(Cc1ccc(Oc2ccccc2)cc1)C(=O)c1ncn(-c2cc(Cl)c(O)c(Cl)c2)n1` [105i, 1-(3,5-dichloro-4-hydroxyphenyl)-N-(3,3-dimethylbutyl)-N-(4-phenoxybenzyl)-1H-1,2,4-triazole-3-carboxamide], the IC50 amounted to 11.3 µM on CHO-CFTR cell line and 3.64 µM at CFTR.

Take `CON(Cc1ccc(Cl)c(Cl)c1)C(=O)c1ncn(-c2cc(Cl)c(O)c(Cl)c2)n1` [126i, 1-(3,5-dichloro-4-hydroxyphenyl)-N-(3,4-dichlorobenzyl)-N-methoxy-1H-1,2,4-triazole-3-carboxamide]: the figures for the IC50 against CHO-CFTR cell line and at CFTR were 2.46 µM and 2.43 µM, respectively.
